Measured values taken from patent US12448388B2, “PRMT5 inhibitors and uses thereof” (Gilead Sciences, Inc., priority 2023, dated 2025).
Read-outs that look alike come from different tables or passages of the source.

System: HCT116 MTAP-deleted cell lines
Assay: Cell viability assay (CellTiter-Glo, 7 days), HCT116 MTAP-deleted
Type: cell-based
Conditions: Homo sapiens, HCT-116, HCT116 MTAP-deleted, class symbols, read-out: CC50
Method in brief: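 Luminescent ATP readout (CellTiter-Glo) after 7 days of continuous compound exposure gives the CC50 value. Cells were plated onto pre-dispensed DMSO dilution series of the PRMT5 inhibitors and kept at 37 °C in 5% CO2.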

| Compound | CC50 (cell viability) [nM] | CC50 (cell viability assay) [nM] |
| --- | --- | --- |
| Cc1ncn2c1c(N)nc1cc(F)c(C(=O)N(C)C3CCc4nc(C(F)(F)F)ccc43)cc12 (stereo not shown) [Ff-68, 4-amino-7-fluoro-N,3-dimethyl-N-(2-(trifluoromethyl)-6,7-dihydro-5H-cyclopenta[b]pyridin-5-yl)imidazo[1,5-a]quinoxaline-8-carboxamide] | < 100 | – |
| Nc1nc2cc(F)c(C(=O)N3CCC[C@@H]4Oc5cc(OC(F)(F)F)ccc5[C@@H]43)cc2n2cncc12 (racemic) [Ff-331, Rac-(4-amino-7-fluoroimidazo[1,5-a]quinoxalin-8-yl)((4aS,9bS)-7-(trifluoromethoxy)-3,4,4a,9b-tetrahydrobenzofuro[3,2-b]pyridin-1(2H)-yl)methanone] | < 100 | – |
| CN(C(=O)c1ccc2nc(N)c3cncn3c2c1)[C@@H]1COc2c1ccc(C(F)(F)F)c2F [Ff-356, (S)-4-amino-N-(7-fluoro-6-(trifluoromethyl)-2,3-dihydrobenzofuran-3-yl)-N-methylimidazo[1,5-a]quinoxaline-8-carboxamide] | < 100 | – |
| CN(C(=O)c1cc2c(cc1F)nc(N)c1cncn12)C1CSc2ccccc21 (stereo not shown) [Ff-456, 4-amino-N-(2,3-dihydrobenzo[b]thiophen-3-yl)-7-fluoro-N-methylimidazo[1,5-a]quinoxaline-8-carboxamide] | – | 100 to 1000 |
| Cc1ncn2c1c(N)nc1cc(F)c(C(=O)N3CCC[C@@H]4Oc5nc(C(F)(F)F)ccc5[C@@H]43)cc12 [Ff-362, (4-amino-7-fluoro-3-methylimidazo[1,5-a]quinoxalin-8-yl)((4aS,9bS)-7-(trifluoromethyl)-3,4,4a,9b-tetrahydrofuro[2,3-b:4,5-b′]dipyridin-1(2H)-yl)methanone] | < 100 | – |
| Nc1nc2cnc(C(=O)N3CCC4(CC4)[C@@H]4Oc5cc(C(F)(F)F)ccc5[C@@H]43)cc2n2cncc12 [Ff-677, (4-aminoimidazo[1,5-a]pyrido[3,4-e]pyrazin-8-yl)((4aS,9bS)-7-(trifluoromethyl)-2,3,4a,9b-tetrahydro-1H-spiro[benzofuro[3,2-b]pyridine-4,1′-cyclopropan]-1-yl)methanone] | – | < 100 |
| CN(C(=O)c1cc2c(cc1F)nc(N)c1cncn12)C1CCOc2cc(C(F)(F)F)ccc21 (stereo not shown) [Ff-40, 4-amino-7-fluoro-N-methyl-N-(7-(trifluoromethyl)chroman-4-yl)imidazo[1,5-a]quinoxaline-8-carboxamide] | 100 to 1000 | – |
| CN(C(=O)c1cc2c(cc1F)nc(N)c1cncn12)[C@@H]1COc2cc(Cl)c(F)cc21 (single isomer, unassigned) [Ff-597] | – | < 100 |
| COC[C@H](c1ccc(C(F)(F)F)cc1)N(C)C(=O)c1cc2c(cc1F)nc(N)c1cncn12 [Ff-431, 4-amino-7-fluoro-N-[(1S)-2-methoxy-1-[4-(trifluoromethyl)phenyl]ethyl]-N-methyl-imidazo[1,5-a]quinoxaline-8-carboxamide] | – | 100 to 1000 |
| CN(C(=O)c1cc2c(cc1F)nc(N)c1cncn12)C1CCc2cc(C(F)(F)F)ccc21 (stereo not shown) [Ff-309, 4-amino-7-fluoro-N-methyl-N-(5-(trifluoromethyl)-2,3-dihydro-1H-inden-1-yl)imidazo[1,5-a]quinoxaline-8-carboxamide] | < 100 | – |
| CN(Cc1ccc(F)cc1Cl)C(=O)c1ccc2nc(N)c3cncn3c2c1 [Ff-30, 4-amino-N-(2-chloro-4-fluorobenzyl)-N-methylimidazo[1,5-a]quinoxaline-8-carboxamide] | > 1000 | – |
| CN(C(=O)c1cc2c(cn1)nc(N)c1cncn12)[C@@H]1COc2cc(C34CC(C3)C4)ccc21 [Ff-449, 7-amino-N-[(3S)-6-(1-bicyclo[1.1.1]pentanyl)-2,3-dihydrobenzofuran-3-yl]-N-methyl-2,4,8,11-tetrazatricyclo[7.4.0.02,6]trideca-1(9),3,5,7,10,12-hexaene-12-carboxamide] | – | < 100 |
| C[C@H]1OC[C@@H](N(C)C(=O)c2cc3c(cc2F)nc(N)c2cncn23)c2ccc(C(F)(F)F)cc21 (racemic) [Ff-283, Rac-4-amino-7-fluoro-N-methyl-N-((1R,4S)-1-methyl-7-(trifluoromethyl)isochroman-4-yl)imidazo[1,5-a]quinoxaline-8-carboxamide] | < 100 | – |
